Each block holds one molecule with its values, some of them ahead of it. The source made the active and inactive calls. The calls are words filed in the database; no cut-off is given here.
How the values were obtained:
[1] = target: T1, Serine/threonine-protein kinase pim-3 (Homo sapiens, UniProt Q86V86); test: Inhibition of PIM3 in the presence of 20uM ATP
[2] = target: Serine/threonine-protein kinase PLK1 (Homo sapiens, UniProt P53350); test: Inhibition of PLK1 in the presence of 5uM ATP
[3] = test system: HEK293; test: Inhibition of PKB-S473 phosphorylation in IGF-1 treated HEK293 cells at 0.5uM; type: functional, cell-based; settings: Homo sapiens, filed as antagonist
[4] = test system: HEK293; test: Inhibition of CHK2-T68 phosphorylation in MMS treated HEK293 cells at 0.5uM; type: functional, cell-based; settings: Homo sapiens
[5] = test system: HEK293; test: Inhibition of CHK1-S345 phosphorylation in MMS treated HEK293 cells at 0.5uM; type: functional, cell-based; settings: Homo sapiens
[6] = target: Serine/threonine-protein kinase D1 (Homo sapiens, UniProt Q15139); test: Inhibition of PKD1 in the presence of 50uM ATP
Chain of Serine/threonine-protein kinase D1 (Q15139 whole entry): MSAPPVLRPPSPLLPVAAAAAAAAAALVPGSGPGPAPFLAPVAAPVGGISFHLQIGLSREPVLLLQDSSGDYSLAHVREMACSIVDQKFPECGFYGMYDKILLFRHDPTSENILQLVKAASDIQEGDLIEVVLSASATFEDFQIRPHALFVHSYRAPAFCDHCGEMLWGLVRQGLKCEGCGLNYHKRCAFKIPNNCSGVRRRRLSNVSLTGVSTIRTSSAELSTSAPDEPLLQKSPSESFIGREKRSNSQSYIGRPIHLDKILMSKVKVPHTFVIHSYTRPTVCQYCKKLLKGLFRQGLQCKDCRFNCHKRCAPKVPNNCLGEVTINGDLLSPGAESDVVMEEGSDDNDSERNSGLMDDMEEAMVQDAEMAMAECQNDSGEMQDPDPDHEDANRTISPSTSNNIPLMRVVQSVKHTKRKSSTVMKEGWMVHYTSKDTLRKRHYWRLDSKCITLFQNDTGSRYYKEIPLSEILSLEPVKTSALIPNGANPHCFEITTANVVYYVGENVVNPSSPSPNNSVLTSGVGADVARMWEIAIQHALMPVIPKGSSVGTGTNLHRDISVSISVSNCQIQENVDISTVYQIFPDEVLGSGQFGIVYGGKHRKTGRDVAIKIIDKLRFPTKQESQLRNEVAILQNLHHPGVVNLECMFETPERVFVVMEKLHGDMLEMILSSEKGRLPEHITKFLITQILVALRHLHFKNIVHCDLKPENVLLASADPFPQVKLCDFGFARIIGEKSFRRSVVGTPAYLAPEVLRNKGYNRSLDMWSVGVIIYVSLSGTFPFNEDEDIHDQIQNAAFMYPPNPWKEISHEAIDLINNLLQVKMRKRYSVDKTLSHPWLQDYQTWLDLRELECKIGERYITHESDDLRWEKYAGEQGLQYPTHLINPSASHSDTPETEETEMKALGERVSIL

[7] = target: Proto-oncogene tyrosine-protein kinase LCK (Mus musculus, UniProt P06240); test: Inhibition of Lck in the presence of 50uM ATP
Chain of Proto-oncogene tyrosine-protein kinase LCK (P06240 whole entry): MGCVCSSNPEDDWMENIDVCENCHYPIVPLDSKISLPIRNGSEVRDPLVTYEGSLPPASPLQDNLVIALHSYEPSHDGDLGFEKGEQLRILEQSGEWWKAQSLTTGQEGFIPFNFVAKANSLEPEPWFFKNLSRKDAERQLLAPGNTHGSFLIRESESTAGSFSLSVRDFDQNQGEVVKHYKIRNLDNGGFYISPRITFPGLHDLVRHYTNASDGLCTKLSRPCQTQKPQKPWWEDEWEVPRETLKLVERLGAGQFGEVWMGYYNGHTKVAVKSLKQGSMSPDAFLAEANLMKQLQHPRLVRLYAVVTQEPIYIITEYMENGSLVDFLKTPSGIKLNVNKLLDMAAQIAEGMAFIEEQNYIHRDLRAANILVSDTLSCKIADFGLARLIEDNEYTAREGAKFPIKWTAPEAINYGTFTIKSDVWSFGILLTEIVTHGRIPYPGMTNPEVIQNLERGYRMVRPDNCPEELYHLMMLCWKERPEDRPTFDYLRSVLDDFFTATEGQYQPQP

[8] = target: T2, Receptor-interacting serine/threonine-protein kinase 2 (Homo sapiens, UniProt O43353); test: Inhibition of RIP2 in the presence of 100uM ATP
T2 sequence (O43353 whole entry): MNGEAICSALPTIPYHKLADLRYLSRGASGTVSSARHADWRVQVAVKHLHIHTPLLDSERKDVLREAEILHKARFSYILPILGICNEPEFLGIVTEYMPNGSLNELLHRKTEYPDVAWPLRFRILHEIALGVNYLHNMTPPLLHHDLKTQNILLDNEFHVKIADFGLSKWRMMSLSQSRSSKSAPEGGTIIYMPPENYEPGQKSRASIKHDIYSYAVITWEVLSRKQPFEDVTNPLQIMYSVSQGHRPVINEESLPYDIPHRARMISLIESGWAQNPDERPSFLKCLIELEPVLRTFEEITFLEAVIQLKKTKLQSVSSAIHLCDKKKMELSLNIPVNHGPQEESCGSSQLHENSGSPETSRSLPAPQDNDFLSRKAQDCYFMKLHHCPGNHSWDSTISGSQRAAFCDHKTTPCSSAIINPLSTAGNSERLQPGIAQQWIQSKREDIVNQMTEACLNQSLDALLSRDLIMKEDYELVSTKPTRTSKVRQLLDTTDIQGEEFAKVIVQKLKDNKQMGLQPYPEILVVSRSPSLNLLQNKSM

[9] = target: T2, Receptor-interacting serine/threonine-protein kinase 2; test: Percentage RIP2 activity remaining in the presence of 10uM inhibitor; settings: filed as antagonist
[10] = target: Mitogen-activated protein kinase 8 (Homo sapiens, UniProt P45983, M108A); test: Inhibition of JNK-M108A in the presence of 20uM ATP
[11] = target: Mitogen-activated protein kinase 8 (Homo sapiens, UniProt P45983, M108G); test: Inhibition of JNK-M108G in the presence of 20uM ATP
[12] = target: cAMP-dependent protein kinase catalytic subunit alpha (Homo sapiens, UniProt P17612); test: Inhibition of PKA in the presence of 20uM ATP
[13] = target: Tyrosine-protein kinase CSK (Homo sapiens, UniProt P41240); test: Inhibition of CSK in the presence of 20uM ATP
[14] = target: T3, Cyclin-G-associated kinase (Homo sapiens) (UniProt O14976); test: Percentage GAK activity remaining in the presence of 1uM inhibitor; settings: filed as antagonist
T3 sequence (whole entry): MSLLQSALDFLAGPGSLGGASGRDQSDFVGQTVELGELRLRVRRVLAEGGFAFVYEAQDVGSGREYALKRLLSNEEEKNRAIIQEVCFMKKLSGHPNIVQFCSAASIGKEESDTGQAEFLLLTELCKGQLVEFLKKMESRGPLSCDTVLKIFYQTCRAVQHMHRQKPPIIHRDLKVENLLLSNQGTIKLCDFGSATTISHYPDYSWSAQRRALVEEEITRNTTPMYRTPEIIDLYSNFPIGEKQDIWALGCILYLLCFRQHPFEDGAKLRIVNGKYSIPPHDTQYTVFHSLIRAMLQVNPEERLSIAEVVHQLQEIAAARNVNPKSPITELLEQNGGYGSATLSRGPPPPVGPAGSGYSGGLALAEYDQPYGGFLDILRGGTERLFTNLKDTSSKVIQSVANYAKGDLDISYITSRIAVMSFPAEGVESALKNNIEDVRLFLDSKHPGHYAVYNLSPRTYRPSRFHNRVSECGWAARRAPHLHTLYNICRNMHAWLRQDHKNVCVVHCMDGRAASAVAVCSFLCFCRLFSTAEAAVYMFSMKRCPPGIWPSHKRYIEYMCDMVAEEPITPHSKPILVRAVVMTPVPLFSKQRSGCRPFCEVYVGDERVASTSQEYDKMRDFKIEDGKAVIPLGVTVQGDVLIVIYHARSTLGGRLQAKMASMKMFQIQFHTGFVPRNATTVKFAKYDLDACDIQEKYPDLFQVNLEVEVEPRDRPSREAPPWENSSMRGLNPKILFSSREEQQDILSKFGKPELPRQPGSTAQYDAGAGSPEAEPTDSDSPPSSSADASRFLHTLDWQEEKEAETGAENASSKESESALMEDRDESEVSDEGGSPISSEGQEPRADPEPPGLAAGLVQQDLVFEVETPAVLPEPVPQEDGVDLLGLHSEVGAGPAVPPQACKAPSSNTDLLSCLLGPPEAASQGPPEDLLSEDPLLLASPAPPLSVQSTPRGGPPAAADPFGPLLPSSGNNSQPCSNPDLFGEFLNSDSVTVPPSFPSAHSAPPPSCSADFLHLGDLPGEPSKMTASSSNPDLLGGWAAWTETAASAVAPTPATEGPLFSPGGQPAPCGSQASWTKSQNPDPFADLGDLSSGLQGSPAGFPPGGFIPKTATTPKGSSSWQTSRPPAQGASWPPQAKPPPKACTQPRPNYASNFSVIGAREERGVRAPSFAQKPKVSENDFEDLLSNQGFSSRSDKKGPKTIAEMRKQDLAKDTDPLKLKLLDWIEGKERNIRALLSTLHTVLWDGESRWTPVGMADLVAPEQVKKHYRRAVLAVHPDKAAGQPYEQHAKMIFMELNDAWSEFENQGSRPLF

[15] = target: T2, Receptor-interacting serine/threonine-protein kinase 2; test: Percentage RIP2 activity remaining in the presence of 1uM inhibitor; settings: filed as antagonist
[16] = target: T3, Cyclin-G-associated kinase (Homo sapiens); test: Percentage GAK activity remaining in the presence of 10uM inhibitor; settings: filed as antagonist
[17] = target: Dual specificity tyrosine-phosphorylation-regulated kinase 3 (Homo sapiens, UniProt O43781); test: Inhibition of DYRK3 in the presence of 5uM ATP
[18] = target: Aurora kinase B (Homo sapiens, UniProt Q96GD4); test: Inhibition of Aurora B in the presence of 20uM ATP
Chain of Aurora kinase B (Q96GD4 whole entry): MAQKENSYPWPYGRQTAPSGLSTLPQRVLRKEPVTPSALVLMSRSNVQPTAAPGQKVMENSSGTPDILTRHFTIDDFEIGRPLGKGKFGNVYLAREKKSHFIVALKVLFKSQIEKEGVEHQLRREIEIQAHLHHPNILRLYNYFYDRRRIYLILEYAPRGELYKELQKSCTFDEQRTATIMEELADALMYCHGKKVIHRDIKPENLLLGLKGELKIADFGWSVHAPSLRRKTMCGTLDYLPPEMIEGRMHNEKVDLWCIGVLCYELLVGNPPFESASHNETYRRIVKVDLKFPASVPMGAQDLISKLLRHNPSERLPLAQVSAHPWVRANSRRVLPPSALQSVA

[19] = target: Serine/threonine-protein kinase Sgk1 (Homo sapiens, UniProt O00141); test: Inhibition of SGK1 in the presence of 20uM ATP
[20] = target: Casein kinase I isoform delta (Homo sapiens, UniProt P48730)
[21] = target: Mitogen-activated protein kinase 8 (Homo sapiens, UniProt P45983); test: Inhibition of JNK1 in the presence of 20uM ATP
[22] = target: T1, Serine/threonine-protein kinase pim-3; test: Inhibition of PIM3 in the presence of 5uM ATP
[23] = target: Serine/threonine-protein kinase pim-1 (Homo sapiens, UniProt P11309); test: Inhibition of PIM1 in the presence of 20uM ATP
Chain of Serine/threonine-protein kinase pim-1 (P11309 whole entry): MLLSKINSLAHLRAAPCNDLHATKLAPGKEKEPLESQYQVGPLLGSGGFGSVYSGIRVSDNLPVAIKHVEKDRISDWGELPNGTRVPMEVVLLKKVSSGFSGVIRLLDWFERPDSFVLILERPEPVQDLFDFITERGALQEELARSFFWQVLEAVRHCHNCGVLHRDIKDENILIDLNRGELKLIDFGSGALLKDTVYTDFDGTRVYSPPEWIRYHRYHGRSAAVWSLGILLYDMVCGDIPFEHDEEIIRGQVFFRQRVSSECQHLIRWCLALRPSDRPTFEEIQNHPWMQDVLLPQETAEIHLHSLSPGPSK

[24] = target: Dual specificity tyrosine-phosphorylation-regulated kinase 2 (Homo sapiens, UniProt Q92630); test: Inhibition of DYRK2 in the presence of 50uM ATP
Chain of Dual specificity tyrosine-phosphorylation-regulated kinase 2 (Q92630 whole entry): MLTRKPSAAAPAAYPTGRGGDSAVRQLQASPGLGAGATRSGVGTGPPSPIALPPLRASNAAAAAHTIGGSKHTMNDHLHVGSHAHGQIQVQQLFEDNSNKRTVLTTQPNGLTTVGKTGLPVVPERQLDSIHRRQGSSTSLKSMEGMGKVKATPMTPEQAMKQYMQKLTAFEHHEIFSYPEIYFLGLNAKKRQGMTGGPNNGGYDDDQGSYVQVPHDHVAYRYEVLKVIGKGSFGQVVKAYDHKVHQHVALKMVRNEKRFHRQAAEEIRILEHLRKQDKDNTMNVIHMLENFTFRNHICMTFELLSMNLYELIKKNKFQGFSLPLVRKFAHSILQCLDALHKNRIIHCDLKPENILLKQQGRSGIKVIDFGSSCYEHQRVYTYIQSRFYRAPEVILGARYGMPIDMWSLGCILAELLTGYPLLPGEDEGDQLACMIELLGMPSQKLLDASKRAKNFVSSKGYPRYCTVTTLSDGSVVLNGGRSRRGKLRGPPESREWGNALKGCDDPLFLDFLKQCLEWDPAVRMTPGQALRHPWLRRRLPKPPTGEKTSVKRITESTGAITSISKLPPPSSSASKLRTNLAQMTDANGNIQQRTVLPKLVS

[25] = target: Glycogen synthase kinase-3 beta (Homo sapiens, UniProt P49841); test: Inhibition of GSK3-beta in the presence of 20uM ATP
[26] = target: Mitogen-activated protein kinase 9 (Homo sapiens, UniProt P45984); test: Inhibition of JNK2 in the presence of 20uM ATP
Chain of Mitogen-activated protein kinase 9 (P45984 whole entry): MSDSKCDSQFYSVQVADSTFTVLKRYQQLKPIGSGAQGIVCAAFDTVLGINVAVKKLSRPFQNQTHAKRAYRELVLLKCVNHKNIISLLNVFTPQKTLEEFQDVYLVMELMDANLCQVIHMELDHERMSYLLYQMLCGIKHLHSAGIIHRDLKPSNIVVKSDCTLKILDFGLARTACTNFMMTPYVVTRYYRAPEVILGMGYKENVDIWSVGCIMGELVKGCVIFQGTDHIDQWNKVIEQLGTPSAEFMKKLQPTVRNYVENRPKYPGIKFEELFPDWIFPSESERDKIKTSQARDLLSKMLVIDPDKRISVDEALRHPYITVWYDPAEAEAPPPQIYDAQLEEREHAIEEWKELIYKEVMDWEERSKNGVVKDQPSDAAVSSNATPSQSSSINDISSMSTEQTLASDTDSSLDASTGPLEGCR

[27] = target: Serine/threonine-protein kinase pim-2 (Homo sapiens, UniProt Q9P1W9); test: Inhibition of PIM2 in the presence of 5uM ATP
Chain of Serine/threonine-protein kinase pim-2 (Q9P1W9 whole entry): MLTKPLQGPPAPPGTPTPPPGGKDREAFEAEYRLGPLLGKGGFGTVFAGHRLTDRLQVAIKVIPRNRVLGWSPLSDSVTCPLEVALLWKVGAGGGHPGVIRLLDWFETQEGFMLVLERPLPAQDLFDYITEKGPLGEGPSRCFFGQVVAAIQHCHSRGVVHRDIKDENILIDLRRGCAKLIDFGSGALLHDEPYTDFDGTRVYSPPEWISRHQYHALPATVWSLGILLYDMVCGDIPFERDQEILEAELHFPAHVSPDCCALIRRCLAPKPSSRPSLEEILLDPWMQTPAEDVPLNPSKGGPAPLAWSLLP

[28] = target: T1, Serine/threonine-protein kinase pim-3; test: Inhibition of PIM3 in the presence of 100uM ATP
[29] = Inhibition of AMPK in the presence of 50uM ATP; set-up: species or system Rattus norvegicus
[30] = target: Casein kinase II (Homo sapiens, UniProt P19784+P67870+P68400); test: Inhibition of CK2 in the presence of 5uM ATP; type: protein-complex assay
[31] = target: Mitogen-activated protein kinase 14 (Homo sapiens, UniProt Q16539)
[32] = target: Proto-oncogene tyrosine-protein kinase Src (Gallus gallus, UniProt P00523); test: Inhibition of Src in the presence of 50uM ATP
[33] = target: Serine/threonine-protein kinase 3 (Homo sapiens, UniProt Q13188); test: Inhibition of MST2 in the presence of 50uM ATP
Chain of Serine/threonine-protein kinase 3 (Q13188 whole entry): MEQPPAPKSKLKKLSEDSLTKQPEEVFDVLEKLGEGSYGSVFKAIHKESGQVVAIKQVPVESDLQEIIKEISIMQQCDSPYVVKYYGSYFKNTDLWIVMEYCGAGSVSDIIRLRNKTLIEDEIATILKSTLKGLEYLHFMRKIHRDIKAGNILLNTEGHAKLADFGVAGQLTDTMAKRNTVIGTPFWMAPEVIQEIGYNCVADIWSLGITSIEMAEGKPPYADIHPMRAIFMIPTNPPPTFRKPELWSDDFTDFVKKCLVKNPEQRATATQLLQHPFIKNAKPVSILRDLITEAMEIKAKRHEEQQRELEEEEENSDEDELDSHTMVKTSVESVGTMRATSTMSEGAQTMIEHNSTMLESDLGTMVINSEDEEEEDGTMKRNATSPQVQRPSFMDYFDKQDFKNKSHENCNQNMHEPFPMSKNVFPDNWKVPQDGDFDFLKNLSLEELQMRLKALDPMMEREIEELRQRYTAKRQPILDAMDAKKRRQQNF

[34] = target: Serine/threonine-protein kinase BRSK2 (Homo sapiens, UniProt Q8IWQ3); test: Inhibition of BRSK2 in the presence of 50uM ATP
[35] = target: Aurora kinase C (Homo sapiens, UniProt Q9UQB9); test: Inhibition of Aurora C in the presence of 5uM ATP
[36] = target: Myosin light chain kinase, smooth muscle (Homo sapiens, UniProt Q15746); test: Inhibition of SmMLCK in the presence of 50uM ATP

Structure (SMILES): Oc1cccc(-c2nc(N3CCOCC3)c3oc4ncccc4c3n2)c1
Activity [3]: Antagonist
Activity [4]: inactive
Activity [5]: inactive

Structure (SMILES): CC(C)(C)n1nc(Cc2cccc3ccccc23)c2c(N)ncnc21
IC50 [6]: 250 nM (antagonist)
IC50 [7]: 460 nM (antagonist)
IC50 [8]: 130 nM (antagonist)
Activity [9]: 5%
IC50 [10]: 250 nM (antagonist)
IC50 [11]: 140 nM (antagonist)
IC50 [12]: 500 nM (antagonist)
IC50 [13]: 510 nM (antagonist)
Activity [14]: 43%
Activity [15]: 14%
Activity [16]: 6%

Structure (SMILES): N#C/C(=C1/Nc2ccccc2S1)c1ccnc(NCCc2cccnc2)n1
IC50 [21]: 2600 nM (antagonist)
IC50 [22]: 30 nM (antagonist)
IC50 [23]: 80 nM (antagonist)
IC50 [24]: 300 nM (antagonist)
IC50 [25]: 40 nM (antagonist)
IC50 [26]: 5000 nM (antagonist)

Structure (SMILES): O=C1Nc2ccc(I)cc2C1=Cc1cc(Br)c(O)c(Br)c1 [GW305074X]
IC50 [23]: 170 nM (antagonist)
Activity [14]: 32%
Activity [15]: 35%
IC50 [27]: 70 nM (antagonist)
IC50 [1]: 100 nM (antagonist)

Structure (SMILES): COC[C@H]1OC(=O)c2coc3c2[C@@]1(C)C1=C(C3=O)[C@@H]2CCC(=O)[C@@]2(C)C[C@H]1OC(C)=O [WORTMANNIN]
IC50 [36]: 5000 nM (antagonist)

The remaining lines, values ahead:

IC50 [1]: 1400 nM (antagonist)
IC50 [2]: 2000 nM (antagonist)
Structure (SMILES): O=c1cc(N2CCOCC2)oc2c(-c3ccccc3)cccc12 [LY-294002]

IC50 [17]: 3200 nM (antagonist)
IC50 [7]: 2500 nM (antagonist)
IC50 [18]: 2500 nM (antagonist)
IC50 [19]: 2700 nM (antagonist)
IC50 [20]: 510 nM (antagonist)
Structure (SMILES): Nc1ncnc2[nH]nc(Nc3ccc(F)cc3)c12

IC50 [28]: 83 nM (antagonist)
IC50 [29]: 160 nM (antagonist)
IC50 [30]: 190 nM (antagonist)
IC50 [27]: 110 nM (antagonist)
IC50 [24]: 950 nM (antagonist)
Structure (SMILES): O=C(O)c1ccc2c3c1cccc3c(=O)n1c3ccccc3nc21

IC50 [6]: 9100 nM (antagonist)
IC50 [31]: 5800 nM (antagonist)
Structure (SMILES): NC(=O)c1ccc(-c2nc(-c3ccc4c(c3)OCCO4)c(-c3ccccn3)[nH]2)cc1

IC50 [7]: 150 nM (antagonist)
IC50 [32]: 100 nM (antagonist)
IC50 [29]: 110 nM (antagonist)
IC50 [18]: 19 nM (antagonist)
IC50 [33]: 110 nM (antagonist)
IC50 [34]: 100 nM (antagonist)
IC50 [35]: 17 nM (antagonist)
Structure (SMILES): CN(C)S(=O)(=O)c1ccc2c(c1)/C(=C/c1cc3c([nH]1)CCCC3)C(=O)N2

— ChEMBL document CHEMBL1150976, “The selectivity of protein kinase inhibitors: a further update” (Biochem J, 2007)
